Data taken from patent EP4745153A1, “GLP-1, GIP AND GCG RECEPTOR […] USE THEREOF” (Jiangsu Hengrui Pharmaceuticals Co., Ltd., priority 2023, dated 2025).
Starred links: 1 amine or outer side, 2 acyl side, 3 side chain; linkers in the order of their positions; H or OH if unused. Non-standard residues stand in square brackets, D forms with d. Residues, ends and D or L forms follow the SMILES beside them. Groups on a side chain read outwards from the residue. ξ: configuration not given here. *: point of attachment. C20 diacid = O=C(O)CCCCCCCCCCCCCCCCCCC(=O)*; γGlu = O=C(O)[C@H](CCC(=O)[*:2])N[*:1]; αMeK = C[C@](N)(CCCCN)C(=O)O; ξIva = CCC(C)(N)C(=O)O; AEEA = NCCOCCOCC(=O)O; Aib = CC(C)(N)C(=O)O

Key:
human GIPR = target: T1, human GIPR (Homo sapiens, UniProt P48546); assay: cAMP HTRF agonist activity assay in CHO-K1 cells expressing GIPR; format: cell-based; conditions: read-out: Activity against human GIPR (EC50 nM); further: 5% FBS, 0.1% Casein
T1 construct: expressed in transfected cells; host or cells: CHO-K1 clonal cell line
T1 sequence (P48546 22-466): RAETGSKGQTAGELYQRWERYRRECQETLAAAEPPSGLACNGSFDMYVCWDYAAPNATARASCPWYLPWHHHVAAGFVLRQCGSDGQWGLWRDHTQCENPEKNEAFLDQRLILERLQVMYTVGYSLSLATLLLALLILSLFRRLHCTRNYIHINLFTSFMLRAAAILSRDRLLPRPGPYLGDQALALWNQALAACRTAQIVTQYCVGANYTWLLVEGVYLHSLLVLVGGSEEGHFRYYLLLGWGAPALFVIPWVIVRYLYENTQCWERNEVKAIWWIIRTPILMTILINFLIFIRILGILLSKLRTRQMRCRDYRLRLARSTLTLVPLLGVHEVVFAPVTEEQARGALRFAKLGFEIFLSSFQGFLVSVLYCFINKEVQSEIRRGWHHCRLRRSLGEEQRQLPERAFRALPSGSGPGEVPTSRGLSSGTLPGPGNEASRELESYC
Method: Functional activity was determined in CHO-K1 clonal cell lines expressing GIPR, GLP-1R, and GCGR. […] Each recipient cell (5000 cells/well) was added to an SV 96-well plate (Cisbio, 66PL96025) and incubated with the prepared polypeptide at 37°Cfor 30 min. The resulting increase in intracellular cAMP was quantitatively measured using the cAMP-GS dynamic HTRF assay kit (Cisbio, 62AM4PEJ). Briefly, the intracellular cAMP levels were determined by adding cAMP-d2 conjugate in cell lysis buffer, followed by the antibody anti-cAMP-Eu cryptate (also in cell lysis buffer).
Using the maximum response percentage vs. the added polypeptide concentration, the relative EC50 values were derived through nonlinear regression analysis and fitted to a four-parameter logarithmic equation. For specific data, refer to Tables 7-1 to 7-8 below. […]

[1] = Pharmacokinetics in mice after single intravenous injection; set-up: species or system C57 mice; conditions: male, C57, mouse, in vivo, iv
Method: Male C57 mice were used as test animals. The target compound was administered via a single intravenous injection, and the pharmacokinetic characteristics of the compound in C57 mice in vivo (plasma) were determined.
Male C57 mice, weighing approximately 25g, aged 4-6 weeks. After preparing the polypeptide compound solution using 1×PBS dissolving solution, the compound was administered intravenously at a dose of 200 nmol/kg, where each compound was administered to 3 animals. Blood samples of 60 µL were collected at 5 min, 15 min, 0.5 h, 1 h, 2 h, 4 h, 6 h, 24 h, 48 h and 72 h after the infusion was completed and transferred to centrifuge tubes containing EDTA-K2 anticoagulant. Whole blood samples were centrifuged at 4000 g for 5 min at 4°C. Plasma was separated and plasma samples were frozen and stored at -80 °C.
Sample pretreatment method: 30 µL of plasma samples was taken, and 120 µL of 0.1% formic acid in methanol containing 1 ng/mL internal standard verapamil was added. The mixture was vortexed for 5 min, and centrifuged at 10000 rpm for 10 min at low temperature. 70 µL of supernatant was taken, and 70 µL of water was added and mixed well. Analysis was performed by LC-MS instrument.
LC-MS analysis method: (1) chromatographic conditions: mobile phases A and B: 0.1% formic acid in water and 0.1% formic acid in acetonitrile, respectively; gradient elution mode; flow rate: 0.5 mL/min; injection volume: 10 µL; chromatographic column: nanomicro Unisil C18aq (4.6 mm × 150 mm, 5 µm); column temperature: 40°C. (2) Mass spectrometry conditions: For mass spectrometry, an electrospray ionization source (ESI), positive ion analysis mode, and multiple reaction monitoring (MRM) scanning mode were used.
For data processing, SCIEX OS (Version 2.1.6) software was used to quantify blood drug concentration data and PKSolver (Version 2.0) software was used to calculate pharmacokinetic parameters.

Row | Structure (SMILES) | EC50 (human GIPR) | clearance [1] | half-life [1]
1 | CC[C@H](C)[C@H](NC(=O)[C@H](CO)NC(=O)[C@H](Cc1ccc(O)cc1)NC(=O)[C@H](CC(=O)O)NC(=O)[C@H](CO)NC(=O)[C@@H](NC(=O)[C@H](Cc1ccccc1)NC(=O)[C@@H](NC(=O)CNC(=O)[C@H](Cc1c[nH]cn1)NC(=O)C(C)(C)NC(=O)[C@@H](N)Cc1c[nH]cn1)[C@@H](C)O)[C@@H](C)O)C(=O)N[C@@](C)(CC(C)C)C(=O)N[C@@H](CC(C)C)C(=O)N[C@@H](CCC(=O)O)C(=O)N[C@@H](CCCCNC(=O)COCCOCCNC(=O)COCCOCCNC(=O)CC[C@H](NC(=O)CCCCCCCCCCCCCCCCCCC(=O)O)C(=O)O)C(=O)N[C@@H](CCCCN)C(=O)N[C@@H](C)C(=O)N[C@@H](C)C(=O)N[C@@H](CCC(N)=O)C(=O)N[C@@H](CCC(=O)O)C(=O)N[C@@H](Cc1ccccc1)C(=O)N[C@H](C(=O)N[C@@H](CCC(=O)O)C(=O)N[C@@H](Cc1c[nH]c2ccccc12)C(=O)N[C@@H](CC(C)C)C(=O)N[C@@H](CC(C)C)C(=O)N[C@@H](C)C(=O)N[C@H](CCC(=O)O)C(=O)NCC(=O)N1CCC[C@H]1C(=O)N[C@@H](CO)C(=O)N[C@@H](CO)C(=O)NCC(=O)N[C@@H](C)C(=O)N1CCC[C@H]1C(=O)N1CCC[C@H]1C(=O)N1CCC[C@H]1C(=O)N[C@@H](CO)C(N)=O)C(C)C [Compound 0139] | 0.007 nM | 4.86 mL/h/kg | 11.9 h
2 | CC[C@H](C)[C@H](NC(=O)[C@](C)(CCCCN)NC(=O)[C@H](CO)NC(=O)[C@H](Cc1ccc(O)cc1)NC(=O)[C@H](CC(=O)O)NC(=O)[C@H](CO)NC(=O)[C@@H](NC(=O)[C@H](Cc1ccccc1)NC(=O)[C@@H](NC(=O)CNC(=O)[C@H](CCC(N)=O)NC(=O)C(C)(C)NC(=O)[C@@H](N)Cc1ccc(O)cc1)[C@@H](C)O)[C@@H](C)O)C(=O)N[C@@H](CC(C)C)C(=O)N[C@@H](CCC(=O)O)C(=O)N[C@@H](CCCCNC(=O)COCCOCCNC(=O)COCCOCCNC(=O)CC[C@H](NC(=O)CCCCCCCCCCCCCCCCCCC(=O)O)C(=O)O)C(=O)N[C@@H](CCCCN)C(=O)N[C@@H](C)C(=O)N[C@@H](C)C(=O)NC(C)(CC)C(=O)N[C@@H](CCC(=O)O)C(=O)N[C@@H](Cc1ccccc1)C(=O)N[C@H](C(=O)N[C@@H](CCC(=O)O)C(=O)N[C@@H](Cc1c[nH]c2ccccc12)C(=O)N[C@@H](CC(C)C)C(=O)N[C@@H](CC(C)C)C(=O)N[C@@H](C)C(=O)NCC(=O)NCC(=O)N1CCC[C@H]1C(=O)N[C@@H](CO)C(=O)N[C@@H](CO)C(=O)NCC(=O)N[C@@H](C)C(=O)N1CCC[C@H]1C(=O)N1CCC[C@H]1C(=O)N1CCC[C@H]1C(=O)N[C@@H](CO)C(N)=O)C(C)C (stereo partly shown) [Compound 0129] (H-Y[Aib]QGTFTSDYS[αMeK]ILEK([AEEA-AEEA-γGlu-C20 diacid])KAA[ξIva]EFVEWLLAGGPSSGAPPPS-NH2) | 0.002 nM | – | –
3 | CC[C@H](C)[C@H](NC(=O)[C@H](CO)NC(=O)[C@H](Cc1ccc(O)cc1)NC(=O)[C@H](CC(=O)O)NC(=O)[C@H](CO)NC(=O)[C@@H](NC(=O)[C@H](Cc1ccccc1)NC(=O)[C@@H](NC(=O)CNC(=O)[C@H](Cc1c[nH]cn1)NC(=O)C(C)(C)NC(=O)[C@@H](N)Cc1c[nH]cn1)[C@@H](C)O)[C@@H](C)O)C(=O)N[C@@H](CC(C)C)C(=O)N[C@@H](CC(C)C)C(=O)N[C@@H](CCC(=O)O)C(=O)N[C@@H](CCCCNC(=O)COCCOCCNC(=O)COCCOCCNC(=O)CC[C@H](NC(=O)CCCCCCCCCCCCCCCCCCC(=O)O)C(=O)O)C(=O)N[C@@H](CCC(N)=O)C(=O)N[C@@H](C)C(=O)N[C@@H](C)C(=O)N[C@@H](CCC(N)=O)C(=O)N[C@@H](CCC(=O)O)C(=O)N[C@@H](Cc1ccccc1)C(=O)N[C@H](C(=O)N[C@@H](CCC(=O)O)C(=O)N[C@@H](Cc1c[nH]c2ccccc12)C(=O)N[C@@H](CC(C)C)C(=O)N[C@@H](CC(C)C)C(=O)N[C@@H](C)C(=O)N[C@H](CCC(=O)O)C(=O)NCC(=O)N1CCC[C@H]1C(=O)N[C@@H](CO)C(=O)N[C@@H](CO)C(=O)NCC(=O)N[C@@H](C)C(=O)N1CCC[C@H]1C(=O)N1CCC[C@H]1C(=O)N1CCC[C@H]1C(=O)N[C@@H](CO)C(N)=O)C(C)C [Compound 0153] | 0.01 nM | – | –
4 | CC[C@H](C)[C@H](NC(=O)[C@H](CO)NC(=O)[C@H](Cc1ccc(O)cc1)NC(=O)[C@H](CC(=O)O)NC(=O)[C@H](CO)NC(=O)[C@@H](NC(=O)[C@H](Cc1ccccc1)NC(=O)[C@@H](NC(=O)CNC(=O)[C@H](CCC(N)=O)NC(=O)C(C)(C)NC(=O)[C@@H](N)Cc1c[nH]cn1)[C@@H](C)O)[C@@H](C)O)C(=O)N[C@@H](CC(C)C)C(=O)N[C@@H](CC(C)C)C(=O)N[C@@H](CCC(=O)O)C(=O)N[C@@H](CCCCNC(=O)COCCOCCNC(=O)COCCOCCNC(=O)CC[C@H](NC(=O)CCCCCCCCCCCCCCCCCCC(=O)O)C(=O)O)C(=O)N[C@@H](CCCCN)C(=O)N[C@@H](C)C(=O)N[C@@H](C)C(=O)NC(C)(C)C(=O)N[C@@H](CCC(=O)O)C(=O)N[C@@H](Cc1ccccc1)C(=O)N[C@H](C(=O)N[C@@H](CCC(=O)O)C(=O)N[C@@H](Cc1c[nH]c2ccccc12)C(=O)N[C@@H](CC(C)C)C(=O)N[C@@H](CC(C)C)C(=O)N[C@@H](C)C(=O)NCC(=O)NCC(=O)N1CCC[C@H]1C(=O)N[C@@H](CO)C(=O)N[C@@H](CO)C(=O)NCC(=O)N[C@@H](C)C(=O)N1CCC[C@H]1C(=O)N1CCC[C@H]1C(=O)N1CCC[C@H]1C(=O)N[C@@H](CO)C(N)=O)C(C)C [Compound 0156] | 0.019 nM | – | –
5 | CC[C@H](C)[C@H](NC(=O)[C@H](CO)NC(=O)[C@H](Cc1ccc(O)cc1)NC(=O)[C@H](CC(=O)O)NC(=O)[C@H](CO)NC(=O)[C@@H](NC(=O)[C@H](Cc1ccccc1)NC(=O)[C@@H](NC(=O)CNC(=O)[C@H](Cc1c[nH]cn1)NC(=O)C(C)(C)NC(=O)[C@@H](N)Cc1c[nH]cn1)[C@@H](C)O)[C@@H](C)O)C(=O)N[C@@H](CC(C)C)C(=O)N[C@@H](CC(C)C)C(=O)N[C@@H](CCC(=O)O)C(=O)N[C@@H](CCCCNC(=O)COCCOCCNC(=O)COCCOCCNC(=O)CC[C@H](NC(=O)CCCCCCCCCCCCCCCCCCC(=O)O)C(=O)O)C(=O)N[C@@H](CCC(N)=O)C(=O)N[C@@H](C)C(=O)N[C@@H](C)C(=O)N[C@@H](CCC(N)=O)C(=O)N[C@@H](CCC(=O)O)C(=O)N[C@@H](Cc1ccccc1)C(=O)N[C@H](C(=O)N[C@@H](CCC(=O)O)C(=O)N[C@@H](Cc1c[nH]c2ccccc12)C(=O)N[C@@H](CC(C)C)C(=O)N[C@@H](CC(C)C)C(=O)N[C@@H](C)C(=O)NCC(=O)NCC(=O)N1CCC[C@H]1C(=O)N[C@@H](CO)C(=O)N[C@@H](CO)C(=O)NCC(=O)N[C@@H](C)C(=O)N1CCC[C@H]1C(=O)N1CCC[C@H]1C(=O)N1CCC[C@H]1C(=O)N[C@@H](CO)C(N)=O)C(C)C [Compound 0152] (H-H[Aib]HGTFTSDYSILLEK([AEEA-AEEA-γGlu-C20 diacid])QAAQEFVEWLLAGGPSSGAPPPS-NH2) | 0.009 nM | – | –
